Among the data in patent US7211572B2 (Japan Tobacco Inc., priority 2003, dated 2007) are IC50 values, retold here.

This assay has as its target T1, HIV integrase (Human immunodeficiency virus type 1 group M subtype B, UniProt P12497, F1332H).
T1 construct: HIV integrase full length gene; made in house; host or cells: Escherichia coli BL21(DE3), plasmid pET21a-INH
The assay is described as follows: Determination of enzyme (HIV integrase) inhibitory activity. The format is biochemical. The note with it: recombinant HIV integrase (F185H), strand transfer ELISA, absorbance at 450 nm. Put shortly:
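Full-length integrase with F185H, expressed in E. coli and purified, was reacted for 60 min at 37 °C with compound and biotinylated donor DNA bound to streptavidin plates. Target DNA was added for 10 min, then anti-digoxigenin-peroxidase detection at A450; IC50 from % inhibition versus enzyme-free blank.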
On the technique in general: An ELISA detects its analyte on a solid surface through an enzyme-linked reagent.

Counter-ions that a name gives are not always drawn. Where only a bound is given, the exact number is not on record here.

As a reminder, the IC50 is the midpoint of a concentration-inhibition curve. Consider `O=C1c2c(O)c(=O)c(-c3ccncc3)cn2CCN1Cc1cccc(Cl)c1F` [Example 340, 2-(3-chloro-2-fluorobenzyl)-9-hydroxy-7-(pyridin-4-yl)-3,4-dihydro-2H-pyrido[1,2-a]pyrazine-1,8-dione hydrochloride], for which the concentration for half-maximal inhibition (IC50) was under 0.01 µM. In the case of `O=c1c(-c2ccncc2)cn2ccn(Cc3ccc(F)cc3)c(=O)c2c1O` [Example 341, 2-(4-fluorobenzyl)-9-hydroxy-7-(pyridin-4-yl)-2H-pyrido[1,2-a]pyrazine-1,8-dione hydrochloride] it was under 0.01 µM. With `O=c1c(-c2ccncn2)cn2ccn(Cc3cccc(Cl)c3F)c(=O)c2c1O` [Example 342, 2-(3-chloro-2-fluorobenzyl)-9-hydroxy-7-(pyrimidin-4-yl)-2H-pyrido[1,2-a]pyrazine-1,8-dione trifluoroacetate], the IC50 is under 0.01 µM.

As for `Cn1ncnc1-c1cn2c(c(O)c1=O)C(=O)N(Cc1ccc(F)c(Cl)c1)CC2` [Example 343, 2-(3-chloro-4-fluorobenzyl)-9-hydroxy-7-(2-methyl-2H-1,2,4-triazol-3-yl)-3,4-dihydro-2H-pyrido[1,2-a]pyrazine-1,8-dione], the IC50 is under 0.01 µM.

Take `CC(=O)c1cn2ccn(Cc3ccc(F)cc3)c(=O)c2c(O)c1=O` [Example 344, 7-acetyl-2-(4-fluorobenzyl)-9-hydroxy-2H-pyrido [1,2-a]pyrazine-1,8-dione]: the IC50 is under 0.01 µM. In the case of `CC(C)C(=O)c1cn2ccn(Cc3ccc(F)cc3)c(=O)c2c(O)c1=O` [Example 345, 2-(4-fluorobenzyl)-9-hydroxy-7-isobutyryl-2H-pyrido[1,2-a]pyrazine-1,8-dione hydrochloride] it was under 0.01 µM; in that of `O=C(Nc1cn2c(c(O)c1=O)C(=O)N(Cc1cccc(Cl)c1)CC2)c1ccncc1` [Example 346, N-[2-(3-chlorobenzyl)-9-hydroxy-1,8-dioxo-1,3,4,8-tetrahydro-2H-pyrido[1,2-a]pyrazin-7-yl]isonicotinamide hydrochloride], 0.01 to 0.1 µM; in that of `O=c1c(-c2ccncn2)cn2ccn(Cc3ccc(F)cc3)c(=O)c2c1O` [Example 347, 2-(4-fluorobenzyl)-9-hydroxy-7-(pyrimidin-4-yl)-2H-pyrido[1,2-a]pyrazine-1,8-dione], under 0.01 µM. In the case of `O=C1c2c(O)c(=O)c(-c3cnccn3)cn2CCN1Cc1ccc(F)c(Cl)c1` [Example 348, 2-(3-chloro-4-fluorobenzyl)-9-hydroxy-7-(pyrazin-2-yl)-3,4-dihydro-2H-pyrido[1,2-a]pyrazine-1,8-dione] it was 0.01 to 0.1 µM; in that of `CC(C)C(=O)Nc1cn2c(c(O)c1=O)C(=O)N(Cc1ccc(F)c(Cl)c1)CC2` [Example 349, N-[2-(3-chloro-4-fluorobenzyl)-9-hydroxy-1,8-dioxo-1,3,4,8-tetrahydro-2H-pyrido[1,2-a]pyrazin-7-yl]isobutyramide], 0.01 to 0.1 µM; in that of `O=C1c2c(O)c(=O)c(-c3nccs3)cn2CCN1Cc1ccc(Cl)cc1O` [Example 350, 2-(4-chloro-2-hydroxybenzyl)-9-hydroxy-7-(thiazol-2-yl)-3,4-dihydro-2H-pyrido[1,2-a]pyrazine-1,8-dione hydrochloride], under 0.01 µM. Consider `CC(CCN1CCn2cc(-c3nccs3)c(=O)c(O)c2C1=O)c1ccccc1` (centres unmarked) [Example 351, 9-hydroxy-2-(3-phenylbutyl)-7-(thiazol-2-yl)-3,4-dihydro-2H-pyrido[1,2-a]pyrazine-1,8-dione hydrochloride], for which the IC50 lay in the range of 0.01 to 0.1 µM. In the case of `O=C(Nc1cn2c(c(O)c1=O)C(=O)N(Cc1cccc(Cl)c1F)CC2)c1cccnc1` [Example 352, N-[2-(3-chloro-2-fluorobenzyl)-9-hydroxy-1,8-dioxo-1,3,4,8-tetrahydro-2H-pyrido[1,2-a]pyrazin-7-yl)nicotinamide hydrochloride] it was 0.01 to 0.1 µM; in that of `CS(=O)(=O)Nc1cn2c(c(O)c1=O)C(=O)N(Cc1ccc(F)c(Cl)c1)CC2` [Example 353, N-[2-(3-chloro-4-fluorobenzyl)-9-hydroxy-1,8-dioxo-1,3,4,8-tetrahydro-2H-pyrido[1,2-a]pyrazin-7-yl]methanesulfonamide], under 0.01 µM; in that of `CCCOc1ccc(CN2CCn3cc(-c4nccs4)c(=O)c(O)c3C2=O)cc1Cl` [Example 354, 2-(3-chloro-4-propoxybenzyl)-9-hydroxy-7-(thiazol-2-yl)-3,4-dihydro-2H-pyrido[1,2-a]pyrazine-1,8-dione hydrochloride], 0.01 to 0.1 µM. To `CC(C)Oc1ccc(CN2CCn3cc(-c4nccs4)c(=O)c(O)c3C2=O)cc1Cl` [Example 355, 2-(3-chloro-4-isopropoxybenzyl)-9-hydroxy-7-(thiazol-2-yl)-3,4-dihydro-2H-pyrido[1,2-a]pyrazine-1,8-dione hydrochloride] belongs 0.01 to 0.1 µM; to `O=C1c2c(O)c(=O)c(-c3nccs3)cn2CCN1Cc1ccc(OCc2ccccc2)c(Cl)c1` [Example 356, 2-(4-benzyloxy-3-chlorobenzyl)-9-hydroxy-7-(thiazol-2-yl)-3,4-dihydro-2H-pyrido[1,2-a]pyrazine-1,8-dione hydrochloride], 0.01 to 0.1 µM; to `CCCOc1cc(Cl)ccc1CN1CCn2cc(-c3nccs3)c(=O)c(O)c2C1=O` [Example 357, 2-(4-chloro-2-propoxybenzyl)-9-hydroxy-7-(thiazol-2-yl)-3,4-dihydro-2H-pyrido[1,2-a]pyrazine-1,8-dione hydrochloride], 0.01 to 0.1 µM. In the case of `CC(C)Oc1cc(Cl)ccc1CN1CCn2cc(-c3nccs3)c(=O)c(O)c2C1=O` [Example 358, 2-(4-chloro-2-isopropoxybenzyl)-9-hydroxy-7-(thiazol-2-yl)-3,4-dihydro-2H-pyrido[1,2-a]pyrazine-1,8-dione hydrochloride] it was 0.01 to 0.1 µM; in that of `O=C1c2c(O)c(=O)c(-c3nccs3)cn2CCN1Cc1ccc(Cl)cc1OCc1ccccc1` [Example 359, 2-(2-benzyloxy-4-chlorobenzyl)-9-hydroxy-7-(thiazol-2-yl)-3,4-dihydro-2H-pyrido[1,2-a]pyrazine-1,8-dione hydrochloride], 0.01 to 0.1 µM.

Regarding `Cn1ncnc1-c1cn2ccn(Cc3ccc(F)cc3)c(=O)c2c(O)c1=O` [Example 360, 2-(4-fluorobenzyl)-9-hydroxy-7-(2-methyl-2H-1,2,4-triazol-3-yl)-2H-pyrido[1,2-a]pyrazine-1,8-dione hydrochloride], the IC50 is under 0.01 µM. To `CNC(=O)c1cn2c(c(O)c1=O)C(=O)N(Cc1cccc(Cl)c1F)CC2` [Example 361, N-methyl-2-(3-chloro-2-fluorobenzyl)-9-hydroxy-1,8-dioxo-1,3,4,8-tetrahydro-2H-pyrido[1,2-a]pyrazine-7-carboxamide] belongs 0.01 to 0.1 µM; to `CCC(C)(C)C(=O)c1cn2c(c(O)c1=O)C(=O)N(Cc1cccc(Cl)c1)CC2` [Example 362, 2-(3-chlorobenzyl)-7-(2,2-dimethylbutyryl)-9-hydroxy-3,4-dihydro-2H-pyrido[1,2-a]pyrazine-1,8-dione], 0.01 to 0.1 µM.

Consider `O=C1c2c(O)c(=O)c(-c3ccccn3)cn2CCN1Cc1ccc(F)cc1` [Example 363, 2-(4-fluorobenzyl)-9-hydroxy-7-(pyridin-2-yl)-3,4-dihydro-2H-pyrido[1,2-a]pyrazine-1,8-dione hydrochloride], for which the 50% inhibitory concentration (IC50) was in the range of 0.01 to 0.1 µM. In the case of `O=c1c(-c2ccccn2)cn2ccn(Cc3cccc(Cl)c3F)c(=O)c2c1O` [Example 364, 2-(3-chloro-2-fluorobenzyl)-9-hydroxy-7-(pyridin-2-yl)-2H-pyrido[1,2-a]pyrazine-1,8-dione hydrochloride], the IC50 is under 0.01 µM. To `O=c1c(-c2ccccn2)cn2ccn(Cc3cccc(F)c3)c(=O)c2c1O` [Example 365, 2-(3-fluorobenzyl)-9-hydroxy-7-(pyridin-2-yl)-2H-pyrido[1,2-a]pyrazine-1,8-dione hydrochloride] belongs 0.01 to 0.1 µM. To `CC(=O)Nc1cc(F)ccc1CN1CCn2cc(-c3nccs3)c(=O)c(O)c2C1=O` [Example 366, N-{5-fluoro-2-[9-hydroxy-1,8-dioxo-7-(thiazol-2-yl)-1,3,4,8-tetrahydro-pyrido[1,2-a]pyrazin-2-ylmethyl]phenyl}acetamide hydrochloride] belongs 0.1 to 1 µM; to `CC(C)(C)C(=O)c1cn2c(c(O)c1=O)C(=O)N(Cc1cccc(Cl)c1F)CC2` [Example 367, 2-(3-chloro-2-fluorobenzyl)-7-(2,2-dimethylpropionyl)-9-hydroxy-3,4-dihydro-2H-pyrido[1,2-a]pyrazine-1,8-dione hydrochloride], 0.01 to 0.1 µM; to `O=C(O)c1cc(F)ccc1CN1CCn2cc(-c3nccs3)c(=O)c(O)c2C1=O` [Example 368, 5-fluoro-2-[9-hydroxy-1,8-dioxo-7-(thiazol-2-yl)-1,3,4,8-tetrahydro-pyrido[1,2-a]pyrazin-2-ylmethyl]benzoic acid hydrochloride], 0.01 to 0.1 µM.

For the compound `O=c1c(-c2ccccn2)cn2ccn(Cc3ccc(F)c(F)c3)c(=O)c2c1O` [Example 369, 2-(3,4-difluorobenzyl)-9-hydroxy-7-(pyridin-2-yl)-2H-pyrido[1,2-a]pyrazine-1,8-dione hydrochloride], the IC50 is under 0.01 µM. In the case of `CN(Cc1ccccc1)C(=O)c1cn2c(c(O)c1=O)C(=O)N(Cc1cccc(Cl)c1)CC2` [Example 370, N-benzyl-N-methyl-2-(3-chlorobenzyl)-9-hydroxy-1,8-dioxo-1,3,4,8-tetrahydro-2H-pyrido[1,2-a]pyrazine-7-carboxamide hydrochloride], the half-inhibitory concentration (IC50) was under 0.01 µM.

On to `O=C(NCc1cccnc1)c1cn2c(c(O)c1=O)C(=O)N(Cc1cccc(Cl)c1)CC2` [Example 371, N-(pyridin-3-ylmethyl)-2-(3-chlorobenzyl)-9-hydroxy-1,8-dioxo-1,3,4,8-tetrahydro-2H-pyrido[1,2-a]pyrazine-7-carboxamide hydrochloride], for which the IC50 lay within 0.01 to 0.1 µM.
